In patent publication US20240374573A1, “IMIDAZOLE CONTAINING COMPOUNDS, DERIVATIVES THEREFORE, AND USES THEREOF” (AglaeaPharma Inc., priority 2023, published 2024):
Counter-ions that a name gives are not always drawn.

Assays:
in vivo = details: male, C57BL/6J, mouse, po, 5 mg/kg
Description: Male C57BL/6J mouse was use in the in vivo distribution assay. The sample of brain, spinal cord and serum were collected for the drug distribution calculation.
Before commencing the study, the mice were acclimated to the test facility for at least 3 days. During this period, their general health was assessed by veterinary staff or other authorized personnel. The mice were housed in groups of up to four per cage in polysulfone cages, using either certified aspen shaving bedding or corncob bedding. This bedding was regularly tested for environmental contaminants by the manufacturer. The facility's environment was carefully controlled to maintain a temperature range of 20-26° C., relative humidity between 40 to 70%, and a 12-hour light/12-hour dark cycle, although this cycle can be interrupted for study-related activities. Temperature and humidity were continuously monitored by the Vawasala ViewLinc Monitoring system.
For dosing, an appropriate amount of the compounds was accurately weighed and mixed with a suitable volume of vehicle to achieve a clear solution. This process may require vertexing or sonication in a water bath. The animals were dosed within four hours of formulation preparation. Samples from each formulation were then collected for dose validation using either LC/UV or LC-MS/MS analysis.
Oral gavage was employed for dosing following the facility's SOPs, with the dose volume based on the animal's body weight measured on the morning of the dosing day.
Blood collections were performed from the saphenous vein or another suitable site, with approximately 0.1 mL collected per time point into pre-chilled commercial EDTA-K2 tubes. The samples were kept on wet ice until centrifugation at 4° C. and 3,200 g for 10 minutes. The plasma was then transferred into pre-labeled 96-well plates or polypropylene tubes, quick-frozen over dry ice, and stored at −60° C. or lower until LC-MS/MS analysis. […]
We calculated AUC ratio from the equation AUC ratio=Tissue AUC0-last/plasma AUC0-last. […]

brain proteins = assay: in vitro; details: for % Undiluted Unbound (n = 3): brain homogenate
Description: The initial preparation of the dialysis membrane involved thawing brain homogenate in a water bath at room temperature and subsequently heating it at 37° C. for 10 minutes. The dialysis setup utilized was from HT Dialysis LLC, featuring a HT-Dialysis plate (Model HTD 96 b) and a dialysis membrane with a molecular weight cutoff of 12-14 kDa.
The membrane underwent a comprehensive pretreatment which included hydration in ultra-pure water at room temperature for approximately one hour. This was followed by separation and immersion in a 20:80 ethanol:water solution for about 20 minutes. After this treatment, the membranes were either used immediately or stored at 2-8° C. for up to one month, with a final rinse in ultra-pure water prior to experimental use.
For compound preparation, test and control substances were first dissolved to create 400 μM working solutions by mixing 4 μL of stock solution with 96 μL of DMSO. These working solutions were then further diluted to 2 μM in a blank matrix by combining 3 μL of the prepared solution with 597 μL of matrix, ensuring thorough mixing.
During the assay, 50 μL aliquots of the 2 μM compound-matrix mixture were dispensed in triplicate into a Sample Collection Plate. Each aliquot was paired with an equal volume of blank PBS to standardize the total volume to 100 μL per well at a 1:1 matrix to PBS ratio. A stop solution comprising 500 μL of acetonitrile with tolbutamide and labetalol at 250 nM each was added to stabilize the samples at TO. The samples were then shaken at 800 rpm for 10 minutes and stored at 2-8° C.
The dialysis procedure included assembling the dialysis device according to the manufacturer's specifications, loading the matrix aliquots into the donor side of the dialysis wells, and conducting the dialysis under a humidified atmosphere with 5% CO2 at 37° C. for 4 hours.
Post-dialysis, 50 μL samples were collected from both the receiver and donor sides into new 96-well plates. Volumes were adjusted to 100 μL by adding an equivalent amount of the opposite blank matrix or PBS. The samples were prepared for LC-MS/MS analysis after thorough vertexing and centrifugation. Blank control samples were prepared and processed similarly to mirror the test conditions.
Data analysis involved calculating the percentages of undiluted unbound and bound fractions, and recovery of the compounds.

plasma proteins = assay: in vitro; details: male, C57BL/6J, mouse, pH 7.4
Description: (§1) The experiment utilized a HT-Dialysis plate (HTD 96 b) and a dialysis membrane with a molecular weight cutoff of 12-14 kDa. The plasma was derived from male C57BL/6J mice, treated with EDTA-K2 as an anticoagulant. The experimental procedure commenced with plasma thawing under cold tap water, followed by centrifugation at 3220×g for 5 minutes to eliminate clots, and pH adjustment to 7.4+0.1.
(§2) Dialysis membranes were initially hydrated in ultra-pure water for about one hour and then treated in a 20:80 ethanol-water mixture for 20 minutes. These prepared membranes could be used immediately or stored at 2-8° C. for up to a month. Membranes were rinsed in ultra-pure water before use.
(§3) Test and control compounds were prepared at a 400 µM concentration by diluting stock solutions with DMSO. Working solutions were further diluted to create 2 μM loading matrix solutions, which were thoroughly mixed. In the assay, 50 μL aliquots of these solutions were dispensed in triplicate into a Sample Collection Plate, balanced with blank PBS to a final volume of 100 µL per well. A stop solution containing acetonitrile, tolbutamide, and labetalol was added, and samples were mixed and cooled at 2 to 8° C.
(§4) During the dialysis, 100 μL aliquots from the loading matrix were placed in the dialysis well's donor side, matched with an equal volume of PBS on the receiver side, and incubated at 37° C. for 4 hours. Post-dialysis, samples from both sides were collected, balanced to 100 μL with corresponding blank fluids, treated with stop solution, vortexed, and centrifuged to prepare for LC-MS/MS analysis.
(§5) Data analysis involved calculating the percentages of Unbound, Bound, and Recovery of the compounds post-dialysis. % Unbound was calculated as the ratio of the compound's peak area on the receiver side to its internal standard, reflecting the fraction that crossed the membrane. % Bound was the complement of % Unbound, representing the fraction retained on the donor side. % Recovery was determined from the peak area ratios on both sides of the membrane, assessing the dialysis efficiency in retaining the compound. These metrics provided insights into the compound's free, bound, and recoverable quantities, elucidating its behavior in the dialysis system.

in vitro = details: male, C57BL/6J, mouse, plasma, pH 7.4
Description: as §1, §2, §3, §4, §5

[1] = mouse, in vivo, po, 1 mg/kg
Description: Initially, mice were acclimatized to the testing environment for 8 hours the day before the experiment, followed by at least 2 hours of habituation on the day of the test. The mice were then grouped randomly based on their body weight into six per group, ensuring a balanced distribution for the administration of the drug, which was dissolved in 20% HP-β-CD in water.
The locomotor activity was monitored by placing the mice in the center of a test box, with a video tracking system measuring the distance traveled every 5 minutes for 60 minutes. The testing began at T=0 minutes, immediately after administering the vehicle or compounds, and concluded at T=60 minutes. For data analysis, Prism 8.3.0 software was utilized, employing Two-way ANOVA followed by Bonferroni's multiple comparison test to analyze distance variations across different time points and One-way ANOVA followed by Dunnett's multiple comparisons test for assessing the total distance covered by the groups. A significance level of p<0.05 was established for determining significant differences.

MC38 tumor = system: MC38 tumor
Description: The cells in exponential growth phase were harvested and quantitated by cell counter before tumor inoculation. […] The date of randomization was denoted as day 0.
After tumor cells inoculation, the animals were checked daily for morbidity and mortality. […] Mortality and observed clinical signs were recorded for individual animals in detail. […] Dosing as well as tumor and body weight measurements were conducted in a Laminar Flow Cabinet. The body weights and tumor volumes were measured by using StudyDirector™ software (version 3.1.399.19).

P-glycoprotein (P-gp) = P-glycoprotein (P-gp) (Homo sapiens, UniProt P08183); assay: in vitro; details: MDCK-MDR1
Description: MDR1-MDCK II cells (obtained from Piet Borst at the Netherlands Cancer Institute) were seeded onto Polycarbonate membranes (PC) in 96-well insert systems at 3.33×10^5 cells/mL until to 4-7 days for confluent cell monolayer formation.
Selected α2AR agonist from table 3s were diluted with the transport buffer (HBSS with 10.0 mM Hepes, pH7.4) from DMSO stock solution to a concentration of 2 μM (DMSO<1%) and applied to the apical or basolateral side of the cell monolayer. […] Permeation of the test compounds from A to B direction and/or B to A direction was determined in duplicate. Digoxin was tested at 10.0 μM from A to B direction and B to A direction in duplicate. The plate was incubated for 2.5 hours in CO2 incubator at 37.0±1.0° C., with 5.0% CO2 at saturated humidity without shaking. In addition, the efflux ratio of each compound was also determined. Test and reference compounds were quantified by LC/MS/MS analysis based on the peak area ratio of analyte/IS.
After transport assay, lucifer yellow rejection assay was applied to determine the cell monolayer integrity. Buffers were removed from both apical and basolateral chambers, followed by the addition of 75 μL of 100 μM lucifer yellow in transport buffer and 250 μL transport buffer in apical and basolateral chambers, respectively. The plate was incubated for 30 minutes at 37.0° C. with 5.0% CO2 and 95.0% relative humidity without shaking. After 30 minutes incubation, 20 μL of lucifer yellow samples were taken from the apical sides, followed by the addition of 60 μL of transport Buffer. And then 80 μL of lucifer yellow samples were taken from the basolateral sides. The relative fluorescence unit (RFU) of lucifer yellow was measured at 425/528 nm (excitation/emission) with an Envision plate reader.
The apparent permeability coefficient Papp (cm/s) was calculated using the equation: […]
wherein dCr/dt is the cumulative concentration of compound in the receiver chamber as a function of time (μM/s); Vr is the solution volume in the receiver chamber (0.075 mL on the apical side, 0.25 mL on the basolateral side); A is the surface area for the transport, i.e. 0.143 cm2 for the area of the monolayer; and C0 is the initial concentration in the donor chamber (μM).
The efflux ratio was calculated using the equation: […]

[2] = D17, G2: 5 mg/kg p.o. QD Day 0~Day 3, then 2 mg/kg QD Day 4~Day 17

P-glycoprotein (P-gp), sequence (P08183 whole entry): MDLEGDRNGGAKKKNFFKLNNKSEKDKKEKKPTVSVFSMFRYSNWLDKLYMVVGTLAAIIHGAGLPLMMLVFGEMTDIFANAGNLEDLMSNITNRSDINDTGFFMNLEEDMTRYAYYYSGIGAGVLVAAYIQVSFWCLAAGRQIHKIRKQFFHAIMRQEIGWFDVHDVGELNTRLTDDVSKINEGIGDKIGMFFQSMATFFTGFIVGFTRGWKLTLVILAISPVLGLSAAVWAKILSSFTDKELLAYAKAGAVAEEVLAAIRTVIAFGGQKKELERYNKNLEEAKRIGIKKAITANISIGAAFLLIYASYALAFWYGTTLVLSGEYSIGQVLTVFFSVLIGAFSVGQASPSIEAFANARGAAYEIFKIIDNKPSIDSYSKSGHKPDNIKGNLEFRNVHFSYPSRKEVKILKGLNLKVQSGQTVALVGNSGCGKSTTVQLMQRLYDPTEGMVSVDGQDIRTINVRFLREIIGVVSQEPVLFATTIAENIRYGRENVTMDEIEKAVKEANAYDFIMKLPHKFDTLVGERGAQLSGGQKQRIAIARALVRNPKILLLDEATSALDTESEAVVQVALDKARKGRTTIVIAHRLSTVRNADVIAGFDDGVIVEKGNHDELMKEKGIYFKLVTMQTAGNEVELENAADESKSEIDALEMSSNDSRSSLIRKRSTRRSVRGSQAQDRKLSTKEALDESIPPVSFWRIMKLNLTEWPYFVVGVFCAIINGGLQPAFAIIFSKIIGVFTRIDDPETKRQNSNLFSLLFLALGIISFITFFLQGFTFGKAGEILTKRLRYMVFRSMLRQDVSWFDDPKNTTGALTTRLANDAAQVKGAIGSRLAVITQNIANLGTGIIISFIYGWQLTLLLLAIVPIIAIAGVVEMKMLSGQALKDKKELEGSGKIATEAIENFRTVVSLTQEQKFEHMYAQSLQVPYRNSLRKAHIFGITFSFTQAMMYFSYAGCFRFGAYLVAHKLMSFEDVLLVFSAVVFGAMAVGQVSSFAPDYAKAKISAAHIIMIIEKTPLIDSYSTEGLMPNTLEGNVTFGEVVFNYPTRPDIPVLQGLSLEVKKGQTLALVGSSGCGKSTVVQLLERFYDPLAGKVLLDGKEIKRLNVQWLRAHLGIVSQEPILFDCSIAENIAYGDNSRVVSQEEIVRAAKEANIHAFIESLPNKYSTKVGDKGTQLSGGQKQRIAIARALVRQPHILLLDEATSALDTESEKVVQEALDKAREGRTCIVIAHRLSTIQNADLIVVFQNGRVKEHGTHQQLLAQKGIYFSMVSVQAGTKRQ

Row | Structure (SMILES) | Kp (in vivo) | recovery at 4 h, 2 μM (brain proteins) | % Undiluted Unbound (n = 3) (brain proteins; 4 h, 2 μM) | recovery at 4 h, 2 μM (plasma proteins) | fraction unbound at 4 h, 2 μM (in vitro) | further results
1 | Clc1cccc(Cl)c1N=C1NCCN1 [Clonidine HCl, clonidine HCl] | 2.27 | 105% | 23.0% | 93.2% | 0.708 | Kp uu (in vivo): 0.739
2 | Clc1cccc(Cl)c1N=C1NCCN1 [Clonidine, clonidine] |  |  |  |  |  | sedation (total distance travelled 0-60 min) [1]: significant sedation; T/C (%) (MC38 tumor; [2]): 27.38%; TGI (%) (MC38 tumor; [2]): 72.62%; Tumor volume (mm^3) (mean ± SEM) (MC38 tumor; [2]): 766.52 ± 147.17 mm^3; state of mice at high dose (MC38 tumor; G2 group, 5 mg/mL, Day 0-3, p.o.): poor state of mice
3 | Cc1cccc([C@H](C)c2cnc[nH]2)c1C [Dexmedetomidine HCl, dexmedetomidine HCl] | 1.26 | 93.8% | 6.3% | 88.9% | 0.068 | 
4 | Oc1ccc2c(c1)C(Cc1c[nH]cn1)CC2 (centres unmarked) [Fadolmidine, reference compound] |  |  |  |  |  | Efflux ratio (P-glycoprotein (P-gp)): 0.80
5 | CC(C)NCC(O)COc1cccc2ccccc12 (centres unmarked) [Propranolol, propranolol] |  | 109% | 2.6% |  |  | % Undiluted Bound (n = 3) (brain proteins; 4 h, 2 μM): 97.4%
